According to the supplement of paper PMC10307832:

Key:
Experiment in all cases: relative viability (nuclei count vs DMSO), 5 days (fraction); higher = more cells survive
Doramapimod + Navitoclax = compound: Cc1ccc(-n2nc(C(C)(C)C)cc2NC(=O)Nc2ccc(OCCN3CCOCC3)c3ccccc23)cc1 [Doramapimod] + CC1(C)CCC(c2ccc(Cl)cc2)=C(CN2CCN(c3ccc(C(=O)NS(=O)(=O)c4ccc(N[C@H](CCN5CCOCC5)CSc5ccccc5)c(S(=O)(=O)C(F)(F)F)c4)cc3)CC2)C1 [Navitoclax] (partner 0.5 µM)
Outline: (§1)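 After 5 days of treatment, lung cancer cells in 1536-well plates were fixed and stained in a single step (final 0.05% Triton X-100, 1% formaldehyde, 1 ug/ml Hoechst) and their nuclei counted on 4× images. Treatment had been applied by pin tool the day after seeding as one drug alone or as a fixed anchor-drug dose with five library-drug doses (not always all listed) in √10 steps. Relative viability is the nuclei count of treated wells divided by that of vehicle wells, and values are medians of duplicate plates.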

RAF265 + Luminespib = compound: Cn1c(Nc2ccc(C(F)(F)F)cc2)nc2cc(Oc3ccnc(-c4ncc(C(F)(F)F)[nH]4)c3)ccc21 [RAF265] + CCNC(=O)c1noc(-c2cc(C(C)C)c(O)cc2O)c1-c1ccc(CN2CCOCC2)cc1 [Luminespib] (partner 0.01 µM)
Outline: as §1

RAF265 + Lapatinib = compound: Cn1c(Nc2ccc(C(F)(F)F)cc2)nc2cc(Oc3ccnc(-c4ncc(C(F)(F)F)[nH]4)c3)ccc21 [RAF265] + CS(=O)(=O)CCNCc1ccc(-c2ccc3ncnc(Nc4ccc(OCc5cccc(F)c5)c(Cl)c4)c3c2)o1 [Lapatinib] (partner 2 µM)
Outline: as §1

RAF265 + Palbociclib = compound: Cn1c(Nc2ccc(C(F)(F)F)cc2)nc2cc(Oc3ccnc(-c4ncc(C(F)(F)F)[nH]4)c3)ccc21 [RAF265] + CC(=O)c1c(C)c2cnc(Nc3ccc(N4CCNCC4)cn3)nc2n(C2CCCC2)c1=O [Palbociclib] (partner 0.5 µM)
Outline: as §1

| Cell Line | relative viability (Doramapimod + Navitoclax; first compound 0.02 µM) | relative viability (Doramapimod + Navitoclax; first compound 0.06325 µM) | relative viability (Doramapimod + Navitoclax; first compound 0.2 µM) | relative viability (Doramapimod + Navitoclax; first compound 0.6325 µM) | relative viability (Doramapimod + Navitoclax; first compound 2 µM) | relative viability (RAF265 + Luminespib; first compound 0.01 µM) | relative viability (RAF265 + Luminespib; first compound 0.03162 µM) | relative viability (RAF265 + Luminespib; first compound 0.1 µM) | relative viability (RAF265 + Luminespib; first compound 0.3162 µM) | relative viability (RAF265 + Luminespib; first compound 1 µM) | relative viability (RAF265 + Lapatinib; first compound 0.01 µM) | relative viability (RAF265 + Lapatinib; first compound 0.03162 µM) | relative viability (RAF265 + Lapatinib; first compound 0.1 µM) | relative viability (RAF265 + Lapatinib; first compound 0.3162 µM) | relative viability (RAF265 + Lapatinib; first compound 1 µM) | relative viability (RAF265 + Palbociclib; first compound 0.01 µM) | relative viability (RAF265 + Palbociclib; first compound 0.03162 µM) | relative viability (RAF265 + Palbociclib; first compound 0.1 µM) | relative viability (RAF265 + Palbociclib; first compound 0.3162 µM) | relative viability (RAF265 + Palbociclib; first compound 1 µM) |
| --- | --- | --- | --- | --- | --- | --- | --- | --- | --- | --- | --- | --- | --- | --- | --- | --- | --- | --- | --- | --- |
| 201T | 1.27 | 1.24 | 1.2 | 1.29 | 1.28 | 1.07 | 0.972 | 1.03 | 0.995 | 0.997 | 1.02 | 1.04 | 1.04 | 1.06 | 1.04 | 0.344 | 0.326 | 0.369 | 0.377 | 0.338 |
| A549 | 1.18 | 1.22 | 1.39 | 1.34 | 1.1 |  |  |  |  |  | 0.906 | 0.853 | 0.987 | 0.465 | 0.463 |  |  |  |  |  |
| A-427 | 1.02 | 1.01 | 1.02 |  | 1.08 | 0.691 | 0.821 | 1.16 | 0.631 | 0.226 | 1.06 | 0.949 | 1.06 | 1.11 | 0.713 | 0.579 | 0.488 | 0.541 | 0.436 | 0.238 |
| ABC-1 |  |  |  |  |  | 0.656 | 0.823 | 0.75 | 0.519 | 0.265 | 1.08 | 1.01 | 1.2 | 1.25 | 0.886 | 0.633 | 0.644 | 0.646 | 0.528 | 0.47 |
| BEN | 0.0531 | 0.0454 | 0.0875 | 0.0584 | 0.0743 | 0.402 | 0.491 | 0.534 | 0.224 | 0.325 | 0.726 | 0.76 | 0.945 | 0.831 | 0.557 | 0.459 | 0.477 | 0.509 | 0.468 | 0.441 |
| CAL-12T | 1.14 | 1.14 | 1.14 | 1.48 | 1.03 | 0.238 | 0.426 | 0.341 | 0.491 | 0.0919 | 0.68 | 0.653 | 0.825 | 0.598 | 0.449 | 0.622 | 0.488 | 0.364 | 0.27 | 0.178 |
| COR-L23 | 1.1 | 0.989 | 1 | 1.07 | 1.02 | 0.637 | 0.655 | 0.539 | 0.33 | 0.324 | 1.02 | 0.982 | 1.02 | 0.748 | 0.62 | 0.295 | 0.233 | 0.235 | 0.184 | 0.148 |
| COR-L 105 | 0.685 | 0.713 | 0.811 | 0.81 | 0.889 | 0.826 | 0.821 | 0.666 | 0.766 | 0.385 | 0.341 | 0.376 | 0.383 | 0.342 | 0.322 | 0.425 | 0.36 | 0.385 | 0.371 | 0.358 |
| Calu-6 | 0.885 | 0.894 | 0.899 | 0.92 | 0.846 |  |  |  |  |  | 1.01 | 0.875 | 0.877 | 0.485 | 0.388 |  |  |  |  |  |
| ChaGo-K-1 | 1.07 | 1.25 | 1.24 |  | 1.01 | 0.722 | 0.666 | 0.575 | 0.545 | 0.396 |  |  |  |  |  | 0.935 | 0.951 | 0.89 | 0.844 | 0.607 |
| EBC-1 | 0.428 | 0.335 | 0.332 | 0.417 | 0.372 |  |  |  |  |  | 0.209 | 0.218 | 0.232 | 0.284 | 0.247 |  |  |  |  |  |
| EKVX | 0.677 | 0.915 | 0.936 | 0.895 | 0.934 | 0.837 | 0.918 | 0.984 | 0.598 | 0.791 | 0.189 | 0.199 | 0.228 | 0.153 | 0.187 | 0.429 | 0.405 | 0.416 | 0.249 | 0.276 |
| EMC-BAC-2 | 1.18 | 1.17 | 1.16 | 1.25 | 0.99 | 1.2 | 0.998 | 1.01 | 0.819 | 0.357 | 0.908 | 0.856 | 0.857 | 0.993 | 0.449 | 0.533 | 0.431 | 0.373 | 0.345 | 0.176 |
| EPLC-272H | 1.14 | 0.943 | 1.12 | 1.23 | 0.978 | 0.169 | 0.224 | 0.333 | 0.138 | 0.177 | 0.976 | 0.707 | 0.655 | 0.855 | 0.343 | 0.334 | 0.291 | 0.352 | 0.287 | 0.269 |
| H3255 | 0.531 | 0.586 | 0.553 | 0.636 | 0.479 | 0.767 | 0.876 | 0.953 |  | 0.634 | 0.254 | 0.248 | 0.26 |  | 0.17 | 0.323 | 0.316 | 0.321 |  | 0.331 |
| HARA | 1.1 | 1.13 | 1.12 | 1.11 | 1.07 | 0.64 | 0.627 | 0.476 | 0.509 | 0.165 | 0.889 | 0.752 | 0.633 | 0.493 | 0.421 | 0.298 | 0.277 | 0.235 | 0.215 | 0.178 |
| HCC-15 | 0.657 | 0.629 | 0.726 | 0.691 | 0.634 | 0.27 | 0.229 | 0.388 | 0.159 | 0.173 | 0.832 | 0.893 | 0.847 | 0.657 | 0.638 | 0.71 | 0.825 | 0.672 | 0.537 | 0.27 |
| HCC-44 | 1 | 0.986 | 0.986 | 1.14 | 0.979 | 1.17 | 0.986 | 1.06 | 1.05 | 1.05 | 0.994 | 0.895 | 0.993 | 1.04 | 0.968 | 1.01 | 0.908 | 0.96 | 1.04 | 1.01 |
